Measured values reported in patent publication EP3120851A1, “4-AMINO-6-(2,6-DICHLOROPHENYL)-8-METHYL-2-(PHENYLAMINO)-PYRIDO[2,3-D]PYRIMIDIN-7(8H)-ONE FOR TREATMENT OF SOLID CANCERS” (Pangaea Biotech S.L., priority 2015, dated 2017).

Legend:
[1] = target: T1, DDR2 N456S (Homo sapiens, UniProt Q16832, N456S); assay: radiometric protein kinase assay (33PanQinase Activity Assay); type: biochemical; conditions: singlicate, read-out: residual activity
T1 construct: GST or His (not specified per kinase); purchased ProQinase (panel service); host or cells: Sf9 insect cells or E. coli
Experimental: (§1) In a first experiment, the kinase inhibition profile of the compound of formula (1) was evaluated at Proqinase (http://www.proqinase.com) by measuring residual activity values at a concentration of 10 µM of the test compound in singlicate in front of the following kinases: ABL2, EPHA3, CSF1-R, DDR2 wt, DDR2 N456 S, EGF-R d746-750, EGF-R d747-752/P753S, EGF-R G719C, EGF-R G719S, EGF-R L858R, EGF-R L861Q, EGF-R wt, EPHA1, EPHA2, EPHB1, ERBB4, LCK, MINK1, RAF1 Y340D/Y341D (untagged), RIPK2, STK17A. In a second experiment, the kinase inhibition profile of the compound of formula (1) was evaluated at Proqinase (http://www.proqinase.com) by measuring residual activity values at a concentration of 0.5 and 10 µM of the test compound in singlicate in front of a panel of 300 kinases using the following protocol:
(§2) The compounds were dissolved to 1 x 10^-03 M stock solutions in 100% DMSO. Subsequently, 100 µl of each stock solution were transferred into wells A3-F12 of a microtiter plate ("master plate"). Wells A1-F2 were filled with 100 µl 100% DMSO as controls. 5 x 10 µl of the master plate were aliquoted into 5 copy plates, which were stored at -20° Celsius until use. For the testing of each group of up to 8 kinases, one copy plate was used.
(§3) In the process, 90 µl H2O were added to each well of a copy plate. To minimize precipitation, the H2O was added to each well only a few minutes before the transfer of the compound solutions into the assay plates. The plate was shaken thoroughly, resulting in a "compound dilution plate" with a compound concentration of 1 x 10^-04 M/10 % DMSO. This plate was used for the transfer of 5 µl compound solution into the assay plates. The final volume of the assay was 50 µl. All compounds were tested at 1 x 10^-05 M in singlicate. The final DMSO concentration in the reaction cocktails was 1 % in all cases. The compound dilution plates were disposed at the end of each working day.
(§4) A radiometric protein kinase assay (^33PanQinase® Activity Assay) was used for measuring the kinase activity of the corresponding protein kinases. All kinase assays were performed in 96-well FlashPlatesTM from Perkin Elmer (Boston, MA, USA) in a 50 µl reaction volume. The reaction cocktail was pipetted in 4 steps in the following order: • 10 µl of non-radioactive ATP solution (in H2O) • 25 µl of assay buffer/ [γ-33P]-ATP mixture • 5 µl of test sample in 10% DMSO • 10 µl of enzyme/substrate mixture
(§5) The protein kinase reaction cocktails were incubated at 30°C for 60 minutes. The reaction was stopped with 50 µl of 2 % (v/v) H3PO4, plates were aspirated and washed two times with 200 µl 0.9 % (w/v) NaCl. All assays were performed with a BeckmanCoulter Biomek 2000/SL robotic system. Incorporation of ^33Pi (counting of "cpm") was determined with a microplate scintillation counter (Microbeta, Wallac).
(§6) All protein kinase assays were performed with a BeckmanCoulter Core robotic system.
(§7) All protein kinases provided by ProQinase were expressed in Sf9 insect cells or in E.coli as recombinant GST-fusion proteins or His-tagged proteins. All kinases were produced from human cDNAs and purified by either GSH-affinity chromatography or immobilized metal. Affinity tags were removed from a number of kinases during purification. The purity of the protein kinases was examined by SDS-PAGE/Coomassie staining, the identity was checked by mass spectroscopy.
(§8) Kinases from external vendors (CAR = Carna Biosciences Inc.; INV = Life Technologies (Invitrogen Corporation); MIL = Merck-Millipore (Millipore Corporation)) were expressed, purified and quality-controlled by virtue of the vendors readings.
(§9) For each kinase, the median value of the cpm of six wells of column 1 of each assay plate was defined as "low control" (n=6). This value reflects unspecific binding of radioactivity to the plate in the absence of a protein kinase but in the presence of the substrate. […]

[2] = target: T2, EPHA1 (Homo sapiens, UniProt P21709); assay: as above; type: biochemical; conditions: singlicate, read-out: residual activity
T2 construct: GST or His (not specified per kinase); purchased ProQinase (panel service); host or cells: Sf9 insect cells or E. coli
Experimental: as §1, §2, §3, §4, §5, §6, §7, §8, §9

[3] = target: T3, EGF-R d747-752/P753S (Homo sapiens, UniProt P00533, DEL747-752/P753S); assay: as above; type: biochemical; conditions: singlicate, read-out: residual activity
T3 construct: GST or His (not specified per kinase); purchased ProQinase (panel service); host or cells: Sf9 insect cells or E. coli
Experimental: as §1, §2, §3, §4, §5, §6, §7, §8, §9

[4] = target: T4, LCK (Homo sapiens, UniProt P06239); assay: as above; type: biochemical; conditions: singlicate, read-out: residual activity
T4 construct: GST or His (not specified per kinase); purchased ProQinase (panel service); host or cells: Sf9 insect cells or E. coli
Experimental: as §1, §2, §3, §4, §5, §6, §7, §8, §9

[5] = target: T5, RAF1 Y340D/Y341D (untagged) (Homo sapiens, UniProt P04049, Y340D/Y341D); assay: as above; type: biochemical; conditions: singlicate, read-out: residual activity
T5 construct: purchased ProQinase (panel service); host or cells: Sf9 insect cells or E. coli
Experimental: as §1, §2, §3, §4, §5, §6, §7, §8, §9

[6] = target: T6, EGF-R L858R (Homo sapiens, UniProt P00533, L858R); assay: as above; type: biochemical; conditions: singlicate, read-out: residual activity
T6 construct: GST or His (not specified per kinase); purchased ProQinase (panel service); host or cells: Sf9 insect cells or E. coli
Experimental: as §1, §2, §3, §4, §5, §6, §7, §8, §9

[7] = target: T7, EGF-R L861Q (Homo sapiens, UniProt P00533, L861Q); assay: as above; type: biochemical; conditions: singlicate, read-out: residual activity
T7 construct: GST or His (not specified per kinase); purchased ProQinase (panel service); host or cells: Sf9 insect cells or E. coli
Experimental: as §1, §2, §3, §4, §5, §6, §7, §8, §9

[8] = target: T8, DDR2 wt (Homo sapiens, UniProt Q16832); assay: as above; type: biochemical; conditions: singlicate, read-out: residual activity
T8 construct: GST or His (not specified per kinase); purchased ProQinase (panel service); host or cells: Sf9 insect cells or E. coli
Experimental: as §1, §2, §3, §4, §5, §6, §7, §8, §9

[9] = target: T9, EGF-R G719S (Homo sapiens, UniProt P00533, G719S); assay: as above; type: biochemical; conditions: singlicate, read-out: residual activity
T9 construct: GST or His (not specified per kinase); purchased ProQinase (panel service); host or cells: Sf9 insect cells or E. coli
Experimental: as §1, §2, §3, §4, §5, §6, §7, §8, §9

[10] = target: T10, ERBB4 (Homo sapiens, UniProt Q15303); assay: as above; type: biochemical; conditions: singlicate, read-out: residual activity
T10 construct: GST or His (not specified per kinase); purchased ProQinase (panel service); host or cells: Sf9 insect cells or E. coli
Experimental: as §1, §2, §3, §4, §5, §6, §7, §8, §9

[11] = target: T11, EGF-R wt (Homo sapiens, UniProt P00533); assay: as above; type: biochemical; conditions: singlicate, read-out: residual activity
T11 construct: GST or His (not specified per kinase); purchased ProQinase (panel service); host or cells: Sf9 insect cells or E. coli
Experimental: as §1, §2, §3, §4, §5, §6, §7, §8, §9

[12] = system: UACC903; assay: MTT proliferation assay, single agent; type: cell-based; conditions: Homo sapiens, UACC-903, Melanoma, BRAF V600E, 72 h, mean of several independent experiments
[13] = system: mantle cell lymphoma (MCL) cell lines; conditions: Eur. J. Med. Chem., 2014, 86, 664-675; cited from earlier work

T6 sequence (P00533 25-1210 L858R): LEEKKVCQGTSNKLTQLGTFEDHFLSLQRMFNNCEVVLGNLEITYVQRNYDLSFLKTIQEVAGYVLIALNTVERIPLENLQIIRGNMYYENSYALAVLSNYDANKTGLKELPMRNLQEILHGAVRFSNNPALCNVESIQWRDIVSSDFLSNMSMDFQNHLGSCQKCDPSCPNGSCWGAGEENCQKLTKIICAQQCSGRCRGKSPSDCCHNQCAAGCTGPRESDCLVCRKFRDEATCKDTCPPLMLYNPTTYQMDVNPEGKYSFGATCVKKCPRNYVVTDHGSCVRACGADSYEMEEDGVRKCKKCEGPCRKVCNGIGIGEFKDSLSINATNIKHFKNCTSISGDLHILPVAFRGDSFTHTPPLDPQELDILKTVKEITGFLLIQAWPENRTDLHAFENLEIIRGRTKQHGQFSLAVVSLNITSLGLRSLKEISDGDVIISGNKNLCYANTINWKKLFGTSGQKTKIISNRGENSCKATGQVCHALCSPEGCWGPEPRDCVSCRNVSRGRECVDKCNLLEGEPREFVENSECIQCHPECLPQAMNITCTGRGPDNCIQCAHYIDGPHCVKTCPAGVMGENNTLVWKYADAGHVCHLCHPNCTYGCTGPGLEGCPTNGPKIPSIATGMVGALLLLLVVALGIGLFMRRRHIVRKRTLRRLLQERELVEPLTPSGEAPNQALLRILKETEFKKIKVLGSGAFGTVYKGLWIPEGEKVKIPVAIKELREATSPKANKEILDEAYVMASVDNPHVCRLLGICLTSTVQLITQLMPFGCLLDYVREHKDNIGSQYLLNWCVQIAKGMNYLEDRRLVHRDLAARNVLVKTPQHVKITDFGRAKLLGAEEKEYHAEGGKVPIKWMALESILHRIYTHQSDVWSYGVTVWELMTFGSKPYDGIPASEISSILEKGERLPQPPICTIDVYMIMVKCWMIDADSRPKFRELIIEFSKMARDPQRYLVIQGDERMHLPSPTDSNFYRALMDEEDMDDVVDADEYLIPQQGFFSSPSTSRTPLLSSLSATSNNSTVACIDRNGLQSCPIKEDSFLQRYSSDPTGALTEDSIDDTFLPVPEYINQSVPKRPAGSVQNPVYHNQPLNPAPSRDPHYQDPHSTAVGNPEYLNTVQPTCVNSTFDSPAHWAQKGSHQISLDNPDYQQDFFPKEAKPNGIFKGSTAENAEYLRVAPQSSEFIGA
T4 sequence (P06239 whole entry): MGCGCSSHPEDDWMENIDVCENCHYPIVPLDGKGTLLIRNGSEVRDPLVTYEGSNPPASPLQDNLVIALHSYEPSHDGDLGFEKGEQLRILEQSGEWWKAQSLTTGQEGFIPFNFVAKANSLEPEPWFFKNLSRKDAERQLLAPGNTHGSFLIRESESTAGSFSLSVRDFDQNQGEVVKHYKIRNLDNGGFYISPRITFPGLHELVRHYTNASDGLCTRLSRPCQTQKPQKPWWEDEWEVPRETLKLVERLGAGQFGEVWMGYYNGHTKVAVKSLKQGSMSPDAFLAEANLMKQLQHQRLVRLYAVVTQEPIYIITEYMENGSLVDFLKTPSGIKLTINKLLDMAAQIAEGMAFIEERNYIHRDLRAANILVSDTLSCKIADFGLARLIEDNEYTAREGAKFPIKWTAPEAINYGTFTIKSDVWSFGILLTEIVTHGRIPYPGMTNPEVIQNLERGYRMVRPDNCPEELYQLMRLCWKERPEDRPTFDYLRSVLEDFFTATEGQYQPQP
T7 sequence (P00533 25-1210 L861Q): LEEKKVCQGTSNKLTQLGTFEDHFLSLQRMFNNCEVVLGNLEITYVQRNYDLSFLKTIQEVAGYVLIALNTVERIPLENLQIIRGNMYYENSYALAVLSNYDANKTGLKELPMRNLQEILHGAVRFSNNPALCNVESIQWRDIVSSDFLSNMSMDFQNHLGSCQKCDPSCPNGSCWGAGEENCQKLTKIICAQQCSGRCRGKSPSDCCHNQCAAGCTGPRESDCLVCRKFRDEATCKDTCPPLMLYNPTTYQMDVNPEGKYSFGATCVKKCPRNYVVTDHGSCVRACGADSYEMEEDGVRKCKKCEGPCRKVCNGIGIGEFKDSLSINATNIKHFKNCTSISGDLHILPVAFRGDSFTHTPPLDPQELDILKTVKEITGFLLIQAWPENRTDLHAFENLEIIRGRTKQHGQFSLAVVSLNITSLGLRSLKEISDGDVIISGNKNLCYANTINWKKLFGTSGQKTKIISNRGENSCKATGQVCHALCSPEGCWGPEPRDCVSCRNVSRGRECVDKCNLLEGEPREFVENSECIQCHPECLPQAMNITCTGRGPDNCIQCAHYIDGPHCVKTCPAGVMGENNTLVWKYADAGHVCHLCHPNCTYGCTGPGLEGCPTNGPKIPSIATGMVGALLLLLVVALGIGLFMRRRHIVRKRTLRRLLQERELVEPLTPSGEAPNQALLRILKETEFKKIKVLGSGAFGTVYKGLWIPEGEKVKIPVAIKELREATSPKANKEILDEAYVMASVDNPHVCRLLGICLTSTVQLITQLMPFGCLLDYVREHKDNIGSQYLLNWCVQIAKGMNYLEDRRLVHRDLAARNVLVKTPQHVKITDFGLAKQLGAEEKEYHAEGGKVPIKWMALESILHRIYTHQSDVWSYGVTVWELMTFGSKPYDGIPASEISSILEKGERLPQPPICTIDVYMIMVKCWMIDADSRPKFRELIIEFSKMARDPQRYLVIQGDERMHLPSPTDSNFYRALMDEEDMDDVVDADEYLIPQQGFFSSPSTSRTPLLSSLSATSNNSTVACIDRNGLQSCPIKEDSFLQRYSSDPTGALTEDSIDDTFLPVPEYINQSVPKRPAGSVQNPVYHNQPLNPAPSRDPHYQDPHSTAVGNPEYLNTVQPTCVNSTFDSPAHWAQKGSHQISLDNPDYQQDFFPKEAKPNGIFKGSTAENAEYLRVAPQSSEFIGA
T9 sequence (P00533 25-1210 G719S): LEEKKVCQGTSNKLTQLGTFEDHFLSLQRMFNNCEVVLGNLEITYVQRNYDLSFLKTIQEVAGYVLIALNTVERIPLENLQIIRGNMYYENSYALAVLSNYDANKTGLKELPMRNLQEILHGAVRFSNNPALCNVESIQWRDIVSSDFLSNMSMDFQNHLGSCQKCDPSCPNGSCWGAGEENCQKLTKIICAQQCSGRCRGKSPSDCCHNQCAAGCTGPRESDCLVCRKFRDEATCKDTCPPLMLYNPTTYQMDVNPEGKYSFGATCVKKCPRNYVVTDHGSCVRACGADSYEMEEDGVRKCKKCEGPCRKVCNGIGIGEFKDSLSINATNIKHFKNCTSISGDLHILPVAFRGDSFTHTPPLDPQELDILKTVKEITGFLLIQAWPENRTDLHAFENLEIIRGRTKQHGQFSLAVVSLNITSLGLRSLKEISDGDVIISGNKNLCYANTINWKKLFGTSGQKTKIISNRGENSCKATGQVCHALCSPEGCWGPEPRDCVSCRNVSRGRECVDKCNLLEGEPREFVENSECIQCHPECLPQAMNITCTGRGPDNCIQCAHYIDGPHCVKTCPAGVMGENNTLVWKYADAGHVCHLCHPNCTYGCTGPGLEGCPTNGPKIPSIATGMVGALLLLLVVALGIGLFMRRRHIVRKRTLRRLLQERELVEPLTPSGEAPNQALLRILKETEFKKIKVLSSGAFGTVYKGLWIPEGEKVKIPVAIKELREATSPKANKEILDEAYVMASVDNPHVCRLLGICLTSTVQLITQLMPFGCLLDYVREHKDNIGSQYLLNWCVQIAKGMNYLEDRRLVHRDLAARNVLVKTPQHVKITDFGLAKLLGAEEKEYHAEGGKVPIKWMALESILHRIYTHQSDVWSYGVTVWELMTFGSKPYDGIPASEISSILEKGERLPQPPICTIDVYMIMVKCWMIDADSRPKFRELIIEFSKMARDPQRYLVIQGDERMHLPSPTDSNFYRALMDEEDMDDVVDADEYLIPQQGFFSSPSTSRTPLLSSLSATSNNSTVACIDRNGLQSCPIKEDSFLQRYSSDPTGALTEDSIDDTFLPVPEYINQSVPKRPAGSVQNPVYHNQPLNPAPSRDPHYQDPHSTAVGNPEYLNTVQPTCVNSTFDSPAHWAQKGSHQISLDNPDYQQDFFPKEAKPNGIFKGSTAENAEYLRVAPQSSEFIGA
T5 sequence (P04049 whole entry Y340D/Y341D): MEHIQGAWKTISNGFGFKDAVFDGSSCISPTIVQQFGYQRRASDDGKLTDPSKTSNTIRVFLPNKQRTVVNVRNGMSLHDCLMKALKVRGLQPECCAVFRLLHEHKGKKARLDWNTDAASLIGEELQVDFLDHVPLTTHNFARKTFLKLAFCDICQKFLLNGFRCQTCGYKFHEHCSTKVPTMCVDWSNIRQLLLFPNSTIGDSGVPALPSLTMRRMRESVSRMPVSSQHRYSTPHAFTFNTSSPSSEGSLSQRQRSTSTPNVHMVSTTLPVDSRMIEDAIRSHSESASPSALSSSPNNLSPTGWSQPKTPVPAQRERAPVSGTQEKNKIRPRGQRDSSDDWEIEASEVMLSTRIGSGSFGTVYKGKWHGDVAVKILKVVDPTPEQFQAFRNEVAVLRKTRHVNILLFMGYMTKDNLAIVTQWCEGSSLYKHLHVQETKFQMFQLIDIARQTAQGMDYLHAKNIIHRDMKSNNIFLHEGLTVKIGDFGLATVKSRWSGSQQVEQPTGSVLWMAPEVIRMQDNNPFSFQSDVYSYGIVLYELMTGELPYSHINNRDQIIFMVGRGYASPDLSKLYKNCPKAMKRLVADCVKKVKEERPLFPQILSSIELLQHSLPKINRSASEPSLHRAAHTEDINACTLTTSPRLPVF

For `Cn1c(=O)c(-c2c(Cl)cccc2Cl)cc2c(N)nc(Nc3ccccc3)nc21` [Compound (1), 4-amino-6-(2,6-dichlorophenyl)-8-methyl-2-(phenylamino)-pyrido[2,3-d]pyrimidin-7(8H)-one], the remaining activity at 0.5 µM ([1]; 0.5 µM test compound) was 10%, the remaining activity at 10 µM ([1]; 10 µM test compound) was 6% and the remaining activity at 0.5 µM ([2]; 0.5 µM test compound) was 54%. It also gave a remaining activity at 10 µM ([2]; 10 µM test compound) of 13%, a remaining activity at 0.5 µM ([3]; 0.5 µM test compound) of 47% and a remaining activity at 10 µM ([3]; 10 µM test compound) of 15%. The remaining activity at 0.5 µM ([4]; 0.5 µM test compound) was 50%, the remaining activity at 10 µM ([4]; 10 µM test compound) was 5% and the remaining activity at 0.5 µM ([5]; 0.5 µM test compound) was 57%. For the same compound, the remaining activity at 10 µM ([5]; 10 µM test compound) was 25%, the remaining activity at 0.5 µM ([6]; 0.5 µM test compound) was 49% and the remaining activity at 10 µM ([6]; 10 µM test compound) was 10%. For the same compound, the remaining activity at 0.5 µM ([7]; 0.5 µM test compound) was 36%, the remaining activity at 10 µM ([7]; 10 µM test compound) was 8% and the remaining activity at 0.5 µM ([8]; 0.5 µM test compound) was 10%. It also gave a remaining activity at 10 µM ([8]; 10 µM test compound) of 4%, a remaining activity at 0.5 µM ([9]; 0.5 µM test compound) of 39% and a remaining activity at 10 µM ([9]; 10 µM test compound) of 3%. It also gave a remaining activity at 0.5 µM ([10]; 0.5 µM test compound) of 52%, a remaining activity at 10 µM ([10]; 10 µM test compound) of 7% and a remaining activity at 0.5 µM ([11]; 0.5 µM test compound) of 47%. For the same compound, the remaining activity at 10 µM ([11]; 10 µM test compound) was 16%, the IC50 [12] was 3.35 µM and the cytostatic activity [13] was “good cytostatic activity”.
